Data: patent US12325697B2 (Nimbus Clio, Inc., priority 2021, dated 2025)
Where a name gives a salt, the structure may show the parent alone. Read-outs that look alike come from different tables or passages of the source.

What was measured:
[1] = system: Jurkat (clone E6-1) cells, NFAT luciferase reporter; assay: Jurkat Reporter Assay (NFAT Luciferase); assay type: cell-based; conditions: Homo sapiens
[2] = system: Phospho-Zap70 (Y-319) in Jurkat wild-type (clone E6-1) cells; assay: Jurkat pZAP70 HTRF Assay; assay type: cell-based; conditions: Homo sapiens
[3] = biological target: Recombinant human Cbl-b (aa 36-427) (Homo sapiens (Human), UniProt Q13191); assay: Cbl-b Biochemical Assay (TR-FRET); conditions: read-out: TR-FRET hCbl-b IC50
Sequence of Recombinant human Cbl-b (aa 36-427) (Q13191 36-427): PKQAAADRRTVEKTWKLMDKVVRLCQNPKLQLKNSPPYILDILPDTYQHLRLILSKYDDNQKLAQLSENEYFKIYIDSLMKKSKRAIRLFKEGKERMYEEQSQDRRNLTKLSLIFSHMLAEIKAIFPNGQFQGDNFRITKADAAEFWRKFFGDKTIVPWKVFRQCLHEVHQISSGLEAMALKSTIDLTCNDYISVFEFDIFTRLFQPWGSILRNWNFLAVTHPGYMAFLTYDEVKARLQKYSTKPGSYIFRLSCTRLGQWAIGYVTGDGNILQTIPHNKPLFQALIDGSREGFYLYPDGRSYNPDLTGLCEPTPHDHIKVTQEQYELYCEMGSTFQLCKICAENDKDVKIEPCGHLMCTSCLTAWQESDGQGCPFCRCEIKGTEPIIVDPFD
Outline: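 IC50 from 4-parameter fit of % inhibition (DMSO max, reference-inhibitor min), duplicate ten-point series. Compound preincubated with 6 nM Cbl-b, then Src-Zap70 (1-2.5 nM)/0.5 mM ATP reaction 60 min RT; EDTA quench with labelled UBE2D2-Ub and streptavidin-terbium, 60 min, HTRF at 520 nm.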

[4] = anti-CD3 stimulation, 6 hr, read-out: Jurkat NFAT EC50
[5] = anti-CD3 5 μg/ml, 3 hr, read-out: ZAP70 Jurkat EC50

Compound | EC50 ([1]; 6 h, read-out: Jurkat NFAT EC50 (μM)) | EC50 ([2]; 3 h, read-out: ZAP70 Jurkat EC50 (μM)) | IC50 [3] | EC50 [1, 4] | EC50 [2, 5]
CCNc1cc(-c2ccc(F)cc2-c2nncn2C)cc(N2Cc3c(cc(COCCOC)cc3C(F)(F)F)C2=O)n1 | < 0.2 µM | 0.2 to 1 µM | – | – | –
CCNc1cc(-c2c(-c3nncn3C)cnn2C)cc(N2Cc3c(cc(CO[C@@H]4CCC[C@@H]4O)cc3C(F)(F)F)C2=O)n1 (racemic) [ADB-1, (rac)-2-[6-(ethylamino)-4-[2-methyl-4-(4-methyl-1,2,4-triazol-3-yl)pyrazol-3-yl]pyridin-2-yl]-6-({[(1R,2S)-2-hydroxycyclopentyl]oxy}methyl)-4-(trifluoromethyl)-3H-isoindol-1-one] | – | – | ≤ 200 nM | 0.2 to 1 µM | 1 to 10 µM
C[C@H](NCC1(O)CCC1)c1cc2c(c(C(F)(F)F)c1)CN(c1cc(-c3ccccc3-c3nncn3C)cc(C3CC3)n1)C2=O (single isomer, unassigned) [AFT-2] | – | – | ≤ 200 nM | < 0.2 µM | < 0.2 µM
C[C@@H](NCC1(O)CCC1)c1cc2c(c(C(F)(F)F)c1)CN(c1cc(-c3ccccc3-c3nncn3C)cc(C3CC3)n1)C2=O (single isomer, unassigned) [AFU-1] | – | – | ≤ 200 nM | < 0.2 µM | < 0.2 µM
CCNc1cc(-c2ccc(C#N)cc2-c2nncn2C)cc(N2Cc3c(cc([C@@H](O)CN(C)C)cc3C(F)(F)F)C2=O)n1 (single isomer, unassigned) [AGK-1] | – | – | ≤ 200 nM | < 0.2 µM | 0.2 to 1 µM
CCNc1cc(-c2ccc(C#N)cc2-c2nncn2C)cc(N2Cc3c(cc([C@H](O)CN(C)C)cc3C(F)(F)F)C2=O)n1 (single isomer, unassigned) [AGL-1] | – | – | ≤ 200 nM | < 0.2 µM | 0.2 to 1 µM
CCNc1cc(-c2c(-c3nncn3C)cnn2C)cc(N2Cc3c(cc(CN[C@@H]4CCC[C@@H]4O)cc3C(F)(F)F)C2=O)n1 [ADF-2, 2-[6-(Ethylamino)-4-[2-methyl-4-(4-methyl-1,2,4-triazol-3-yl)pyrazol-3-yl]pyridin-2-yl]-6-({[(1R,2S)-2-hydroxycyclopentyl]amino}methyl)-4-(trifluoromethyl)-3H-isoindol-1-one] | – | – | ≤ 200 nM | < 0.2 µM | < 0.2 µM
CCNc1cc(-c2c(-c3nncn3C)cnn2C)cc(N2Cc3c(cc(CO[C@@H]4CCC[C@@H]4O)cc3C(F)(F)F)C2=O)n1 [ADH-1, 2-[6-(Ethylamino)-4-[2-methyl-4-(4-methyl-1,2,4-triazol-3-yl)pyrazol-3-yl]pyridin-2-yl]-6-({[(1R,2S)-2-hydroxycyclopentyl]oxy}methyl)-4-(trifluoromethyl)-3H-isoindol-1-one] | – | – | ≤ 200 nM | < 0.2 µM | 0.2 to 1 µM
CCNc1cc(-c2c(-c3nncn3C)cnn2C)cc(N2Cc3c(cc(CNCC4(O)CCC4)cc3C(F)(F)F)C2=O)n1 [ADJ-1, 2-[6-(Ethylamino)-4-[2-methyl-4-(4-methyl-1,2,4-triazol-3-yl)pyrazol-3-yl]pyridin-2-yl]-6-({[(1-hydroxycyclobutyl)methyl]amino}methyl)-4-(trifluoromethyl)-3H-isoindol-1-one] | – | – | ≤ 200 nM | < 0.2 µM | < 0.2 µM
CCOc1cc(N2Cc3c(cccc3C(F)(F)F)C2=O)cc(C2(Cc3nncn3C)COC2)c1 [AHM-12, 2-(3-Ethoxy-5-[3-[(4-methyl-1,2,4-triazol-3-yl)methyl]oxetan-3-yl]phenyl)-4-(trifluoromethyl)-3H-isoindol-1-one] | – | – | 200 to 1000 nM | 1 to 10 µM | –
CCNc1cc(-c2ccccc2-c2nncn2C)cc(N2Cc3c(cc(CN4CC[C@@H](O)C4)cc3C(F)(F)F)C2=O)n1 [AT-1, (R)-2-(6-(Ethylamino)-4-(2-(4-methyl-4H-1,2,4-triazol-3-yl)phenyl)pyridin-2-yl)-6-((3-hydroxypyrrolidin-1-yl)methyl)-4-(trifluoromethyl)isoindolin-1-one] | – | – | ≤ 200 nM | 0.2 to 1 µM | –
CCNc1cc(-c2ccccc2-c2nncn2C)cc(N2Cc3c(cc(CN4CCC(F)(F)[C@H](C)C4)cc3C(F)(F)F)C2=O)n1 [AU-2, (R)-6-((4,4-Difluoro-3-methylpiperidin-1-yl)methyl)-2-(6-(ethylamino)-4-(2-(4-methyl-4H-1,2,4-triazol-3-yl)phenyl)pyridin-2-yl)-4-(trifluoromethyl)isoindolin-1-one] | – | – | ≤ 200 nM | 0.2 to 1 µM | –
Cn1cnnc1-c1ccccc1-c1cccc(N2Cc3c(cc(CO[C@@H]4CCC[C@@H]4O)cc3C(F)(F)F)C2=O)c1 [AV-3, 6-((((1R,2S)-2-Hydroxycyclopentyl)oxy)methyl)-2-(2′-(4-methyl-4H-1,2,4-triazol-3-yl)-[1,1′-biphenyl]-3-yl)-4-(trifluoromethyl)isoindolin-1-one] | – | – | 200 to 1000 nM | 1 to 10 µM | –
O=C1c2cc(CNCC3(O)CCC3)cc(C(F)(F)F)c2CN1c1ccccc1 [AX-3, 6-((((1-Hydroxycyclobutyl)methyl)amino)methyl)-2-phenyl-4-(trifluoromethyl)isoindolin-1-one] | – | – | 10000 to 50000 nM | 10 to 50 µM | –
Cn1cnnc1-c1ccccc1-c1cccc(N2Cc3c(cc(Br)cc3C(F)(F)F)C2=O)c1 [AY-1, 6-Bromo-2-(2′-(4-methyl-4H-1,2,4-triazol-3-yl)-[1,1′-biphenyl]-3-yl)-4-(trifluoromethyl)isoindolin-1-one] | – | – | 200 to 1000 nM | 10 to 50 µM | –
CCNc1cc(-c2ccccc2-c2nncn2C)cc(N2Cc3c(cc(COC4CCNCC4)cc3C(F)(F)F)C2=O)n1 [BA-4, 2-(6-(Ethylamino)-4-(2-(4-methyl-4H-1,2,4-triazol-3-yl)phenyl)pyridin-2-yl)-6-((piperidin-4-yloxy)methyl)-4-(trifluoromethyl)isoindolin-1-one, HCl] | – | – | ≤ 200 nM | 1 to 10 µM | –
Cn1cnnc1-c1ccccc1-c1cccc(N2Cc3c(cc(COC4CCN(C(=O)OC(C)(C)C)CC4)cc3C(F)(F)F)C2=O)c1 [BB-1, tert-Butyl 4-((2-(2′-(4-methyl-4H-1,2,4-triazol-3-yl)-[1,1′-biphenyl]-3-yl)-3-oxo-7-(trifluoromethyl)isoindolin-5-yl)methoxy)piperidine-1-carboxylate] | – | – | 200 to 1000 nM | 10 to 50 µM | –
CN1CCC(OCc2cc3c(c(C(F)(F)F)c2)CN(c2cccc(-c4ccccc4-c4nncn4C)c2)C3=O)CC1 [BC-4, 2-(2′-(4-Methyl-4H-1,2,4-triazol-3-yl)-[1,1′-biphenyl]-3-yl)-6-(((1-methylpiperidin-4-yl)oxy)methyl)-4-(trifluoromethyl)isoindolin-1-one] | – | – | 200 to 1000 nM | 1 to 10 µM | –
Cn1cnnc1-c1ccccc1-c1cccc(N2Cc3c(cc(COC4CCOCC4)cc3C(F)(F)F)C2=O)c1 [BD-3, 2-(2′-(4-Methyl-4H-1,2,4-triazol-3-yl)-[1,1′-biphenyl]-3-yl)-6-(((tetrahydro-2H-pyran-4-yl)oxy)methyl)-4-(trifluoromethyl)isoindolin-1-one] | – | – | ≤ 200 nM | 1 to 10 µM | –
Cn1cnnc1-c1cc(C#N)ccc1-c1cccc(N2Cc3c(cc(CN[C@@H]4CCC[C@@H]4O)cc3C(F)(F)F)C2=O)c1 [BE-3, 3′-(6-((((1R,2S)-2-Hydroxycyclopentyl)amino)methyl)-1-oxo-4-(trifluoromethyl)isoindolin-2-yl)-2-(4-methyl-4H-1,2,4-triazol-3-yl)-[1,1′-biphenyl]-4-carbonitrile] | – | – | ≤ 200 nM | < 0.2 µM | –
